How the values were obtained:
[1] = Feeding trial in rumen-fistulated dairy cows: ZEN and ZEN metabolites in rumen fluid from reticulum, dorsal mat layer and ventral sac; assay type: in vivo, Holstein Friesian cows; conditions: for Detection in rumen fluid: any reticulorumen location
Excerpt: (§1) Ruminal metabolism of ZEN with and without supplementation of ZenA was investigated in four rumen-fistulated Holstein Friesian cows (sex: female; age at start: 5.9 ± 1.0 years; body weight at start: 863 ± 65 kg; physiological stage: non-lactating; general health: good, non-gestating; identification procedure: ear tag 4-digit code). The cows were part of the dairy herd of VetFarm (Teaching and Research Farm) of the University of Veterinary Medicine Vienna in Kremesberg, Austria. All procedures related to these experiments were performed according to Austrian law and following the European Guidelines for the Care and Use of Animals for Research Purpose. The animal experiment was approved by ethics and animal welfare commission of the University of Veterinary Medicine, Vienna and the Austrian Federal Ministry of Education, Science and Research (68.205/0156-WF/V/3b/2017, 30.08.2017).
(§2) In our trial setup, each animal was considered an experimental unit (n = 4). Each animal received the same treatment and served as its own control. First, each animal received ZEN-contaminated concentrate feed. Following a 48-h washout period, each animal received ZEN-contaminated concentrate feed supplemented with ZenA. In brief, for acclimatization, on the day prior to the start of the feeding trial, each animal was manually fed 4 × 500 g of control concentrate (Table 4 and Table 5). Thereafter, animals were manually fed (i) 1 × 500 g concentrate contaminated with ZEN and 3 × 500 g control concentrate on experimental day 1 (ZEN treatment), (ii) 4 × 500 g control concentrate on day 2 (ZEN washout), (iii) 1 × 500 g ZEN-contaminated concentrate supplemented with ZenA and 3 × 500 g control concentrate on day 3 (ZEN+ZenA treatment), and (iv) 4 × 500 g control concentrate on day 4 (ZEN+ZenA washout; Table 6). Animals were treated and assessed in the same random order at each experimental time point.
For production of ZEN-contaminated concentrate feed, lyophilizate of ZEN with maltodextrin as a carrier was prepared. To this end, in three parallel preparations, 50 mg ZEN (Fermentek, Jerusalem, Israel) was dissolved in 1 L RO water (pH 12; adjusted with NaOH) using a magnetic stirrer set to 400 rpm and 37 °C for 20 min. Subsequently, 100 g maltodextrin DE19 (Agrana, Vienna, Austria) was added and dissolved by stirring (400 rpm) at room temperature for 10 min. The solution was lyophilized. Lyophilizate was mixed into concentrate feed at an inclusion rate of 2%. The final concentration of ZEN in feed was aimed to be 10 mg/kg and was verified using HPLC-MS/MS analysis as described below. For production of ZEN-contaminated, ZenA-supplemented concentrate, a zearalenone hydrolase ZenA preparation (ZENzyme®; EC 3.1.1.-; BIOMIN Holding GmbH, Getzersdorf, Austria) was mixed into ZEN-contaminated concentrate to achieve an activity of 128 U/kg feed. Same as in the in vitro trial, 1 U of ZenA was defined as the enzyme activity that hydrolyzes 1 μmol ZEN per minute from 15.71 µM ZEN in Teorell Stenhagen buffer adjusted to pH 7.5 containing 0.1 mg/mL bovine serum albumin at 37 °C.
On days 1 and 3 of the trial (ZEN and ZEN+ZenA treatment, respectively), ruminal digesta samples were taken from reticulum, ventral sac and dorsal mat layer (Figure 3) immediately before concentrate feeding (0 h), as well as 15 min, 1 h, 2 h, 4 h, 7 h and 10 h after concentrate feeding (Table 6). On days 2 and 4 of the trial (washout days), ruminal digesta samples were taken immediately before first concentrate feeding (0 h), as well as 10 h after first concentrate feeding (Table 6). Ruminal digesta samples (10 mL) were taken via a rumen fistula from reticulum and ventral sac (10 cm above the bottom of the rumen) using a pump as described previously. Samples were taken from the dorsal mat layer 20 cm below the gas phase and rumen fluid was obtained by manually squeezing the samples as described previously. Samples were mixed 1:2 with acetonitrile by vortexing. […]

[2] = Feeding trial in rumen-fistulated dairy cows: ZEN and ZEN metabolites in feces; assay type: in vivo, Holstein Friesian cows; conditions: for Percentage of concentration relative to the sum of ZEN and ZEN metabolite concentrations: feces
Excerpt: as §1, §2
On days 1 and 3 of the experiment, feces samples were taken from the rectum immediately before concentrate feeding (0 h), as well as 10 h after concentrate feeding (Table 6) and stored at −20 °C. Aliquots (500 mg) of thoroughly homogenized feces samples were extracted for HPLC-MS/MS analysis according to the method described by Binder and coworkers.
HPLC-MS/MS analysis of ZEN, α-ZEL, β-ZEL, HZEN and DHZEN in rumen fluid and feces was performed as described for the in vitro rumen fermentation experiment (see section “In Vitro Rumen Fermentation Experiment”, subsection “Analysis of ZEN and its Metabolites”), with the following modifications. Chromatographic separation was performed with a flow rate of 0.6 mL/min, a duration of 4 min and an injection volume was 1 µL. The gradient started at 30% B which was held for 0.3 min. Subsequently, the proportion of B was increased to 80% from 0.3 to 2 min, and increased to 100% from 2 to 2.1 min. […] LODs for ZEN, α-ZEL, β-ZEL, HZEN and DHZEN in rumen fluid were 2.83 nmol/L (0.9 µg/L), 2.81 nmol/L (0.9 µg/L), 2.81 nmol/L (0.9 µg/L), 2.68 nmol/L (0.9 µg/L) and 10.27 nmol/L (3 µg/L), respectively. LOQs for ZEN, α-ZEL, β-ZEL, HZEN and DHZEN in rumen fluid were 9.43 nmol/L (3 µg/L), 9.37 nmol/L (3 µg/L), 9.37 nmol/L (3 µg/L), 8.93 nmol/L (3 µg/L) and 30.81 nmol/L (9 µg/L), respectively. LODs for ZEN, α-ZEL, β-ZEL, HZEN and DHZEN in feces were 0.03 nmol/g (8.4 ng/g), 0.03 nmol/g (8.4 ng/g), 0.03 nmol/g (8.4 ng/g), 0.03 nmol/g (8.4 ng/g) and 0.10 nmol/g (28 ng/g), respectively. LOQs for ZEN, α-ZEL, β-ZEL, HZEN and DHZEN in feces were 0.09 nmol/g (28 ng/g), 0.09 nmol/g (28 ng/g), 0.09 nmol/g (28 ng/g), 0.08 nmol/g (28 ng/g) and 0.29 nmol/g (84 ng/g), respectively.

[3] = for Detection in reactors: reactors incubated with ZEN without ZenA, any time point
[4] = test system: MCF-7 cell; parameters: method as in PMID 12596876, PMID 31434326; conditions: cited from earlier work
[5] = test system: estrogen-sensitive yeast; parameters: method as in PMID 31434326; conditions: cited from earlier work
[6] = test system: pigs; parameters: method as in PMID 31434326; conditions: in contrast to ZEN; cited from earlier work
[7] = reticulorumen, ZEN treatment, 15 min after feeding, from median of 3 locations
[8] = reticulorumen, ZEN treatment, 1 h
[9] = reticulorumen, ZEN treatment, 4 h
[10] = reticulorumen, ZEN treatment, 7 h
[11] = reticulorumen, ZEN treatment, 10 h
[12] = reticulorumen, ZEN treatment, 24 h
[13] = reticulorumen, ZEN+ZenA treatment, 15 min
[14] = reticulorumen, ZEN+ZenA treatment, 1 h
[15] = reticulorumen, ZEN+ZenA treatment, 4 h
[16] = reticulorumen, ZEN+ZenA treatment, 7 h
[17] = reticulorumen, ZEN+ZenA treatment, 10 h
[18] = ZEN+ZenA treatment, 0 h (48 h after ZEN treatment)

| SMILES | Detection in rumen fluid ([1]; ZEN treatment) | Percentage of concentration relative to the sum of ZEN and ZEN metabolite concentrations [1, 7] [%] | Percentage of concentration relative to the sum of ZEN and ZEN metabolite concentrations [1, 8] [%] | Percentage of concentration relative to the sum of ZEN and ZEN metabolite concentrations [1, 9] [%] | Percentage of concentration relative to the sum of ZEN and ZEN metabolite concentrations [1, 10] [%] | Percentage of concentration relative to the sum of ZEN and ZEN metabolite concentrations [1, 11] [%] | Percentage of concentration relative to the sum of ZEN and ZEN metabolite concentrations [1, 12] [%] | Percentage of concentration relative to the sum of ZEN and ZEN metabolite concentrations [1, 13] [%] | Percentage of concentration relative to the sum of ZEN and ZEN metabolite concentrations [1, 14] [%] | Percentage of concentration relative to the sum of ZEN and ZEN metabolite concentrations [1, 15] | Percentage of concentration relative to the sum of ZEN and ZEN metabolite concentrations [1, 16] | Percentage of concentration relative to the sum of ZEN and ZEN metabolite concentrations [1, 17] | Percentage of concentration relative to the sum of ZEN and ZEN metabolite concentrations ([2]; ZEN treatment, 10 h) [%] | Percentage of concentration relative to the sum of ZEN and ZEN metabolite concentrations [2, 18] [%] | Percentage of concentration relative to the sum of ZEN and ZEN metabolite concentrations ([2]; ZEN+ZenA treatment, 10 h) [%] | Detection in reactors [3] | Estrogenic response [4] | Estrogenic response [5] | Effect on reproductive tract morphology or expression of ZEN-responsive microRNAs [6] | further results |
| --- | --- | --- | --- | --- | --- | --- | --- | --- | --- | --- | --- | --- | --- | --- | --- | --- | --- | --- | --- | --- |
| C[C@H](O)CCCC(=O)CCC/C=C/c1cc(O)cc(O)c1C(=O)O [HZEN, hydrolyzed zearalenone] | not detected | 0.0 | 0.0 | 0.0 | 0.0 | 0.0 | 0.0 | 94.1 | 100.0 | 100.0% | 100.0% | 100.0% | 0.0 | 0.0 | 31.9 | not detected | did not elicit an estrogenic response | did not elicit an estrogenic response | did not affect | Not detected anymore at (time after concentrate feeding) ([1]; reticulorumen, ZEN+ZenA treatment): 24 h |
| C[C@H](O)CCCC(=O)CCC/C=C/c1cc(O)cc(O)c1 [DHZEN, decarboxylated hydrolyzed zearalenone] | not detected | 0.0 | 0.0 | 0.0 | 0.0 | 0.0 | 0.0 | 0.0 | 0.0 | 0.0 (traces) % | 0.0 (traces) % | 0.0 (traces) % | 0.0 | 0.0 | 0.0 | not detected | did not elicit an estrogenic response | did not elicit an estrogenic response | did not affect | Detection in feces ([2]; ZEN and ZEN+ZenA treatments, any sample): not detected; First detected (time after start of incubation) ([3]; reactors incubated with ZEN and ZenA (100 U/kg feed)): 2 h |

From PMC7911295, “Metabolism of Zearalenone in the Rumen of Dairy Cows with and without Application of a Zearalenone-Degrading Enzyme” (Toxins, 2021)
